The record followed here is patent US6750244B2, “Compounds active at a novel site on receptor-operated calcium channels useful for treatment of neurological disorders and diseases” (NPS Pharmaceuticals, Inc., priority 1993, dated 2004).

Several values for one entry are separate records, joined by “and”; a condition that tells them apart may be missing. Equal values may be shown once. Where a name gives a salt, the structure may show the parent alone.

As a reminder, the IC50 is the concentration at which inhibition is half-maximal.

One assay has as its system NMDA receptor. Kind of assay: Inhibition of NMDA/glycine-induced increases in intracellular calcium in cultured rat cerebellar granule cells (RCGC). Type of assay: cell-based. The following applies: NMDA/glycine-induced increases in intracellular calcium, cultured rat cerebellar granule cells; read-out: IC50 (μM) vs. NMDA. Background: A change in cytosolic calcium serves as a functional read-out for many receptors and channels.
Turning to `NCC(c1ccccc1)c1ccccc1` [2,2-diphenylethylamine, reference compound], the IC50 stood at 24.5 µM. For `C[C@@H](NCCC(c1ccccc1)c1ccccc1)c1ccccc1` [(R)-fendiline, reference compound], the IC50 was determined as 0.719 µM.

For `C[C@H](NCCC(c1ccccc1)c1ccccc1)c1ccccc1` [(S)-fendiline, reference compound], the IC50 is 0.686 µM. Consider `COc1ccc(C(CC(C)N)c2ccccc2)cc1` (centres unmarked) [Astra compound, reference compound], for which the 50% inhibitory concentration (IC50) was above 30 µM. Consider `NCCCOCCCCOCCCNC(=O)Cc1cc(Br)ccc1O` [Compound 15], for which the 50% inhibitory concentration (IC50) is 4.9 µM. `CCNCCC(c1ccccc1)c1ccccc1` [Compound 68, N-ethyl-3,3-diphenylpropylamine]: the IC50 was found to be 2.9 µM. As for `NCCCC(c1ccccc1)c1ccccc1` [Compound 70, 4,4-diphenylbutylamine], the 50% inhibitory concentration (IC50) is 1.7 µM. Take `NCCCCC(c1ccccc1)c1ccccc1` [Compound 71, 5,5-diphenylpentylamine]: the IC50 was 6.35 µM and 6.4 µM. On the same count and under the same terms, then `CC(C)NCCC(c1ccccc1)c1ccccc1` [Compound 72, N-isopropyl-3,3-diphenylpropylamine], with 7.4 µM; and `CN(C)CCC(c1ccccc1)c1ccccc1` [Compound 73, N,N-dimethyl-3,3-diphenylpropylamine], with 12.6 µM; and `CCN(CC)CCC(c1ccccc1)c1ccccc1` [Compound 74, N,N-diethyl-3,3-diphenylpropylamine], with 27.5 µM.

`NCCC(c1ccccc1)C1CCCCC1` (centres unmarked) [Compound 75]: the IC50 came to 0.94 µM. On to `NCCC(c1ccc(F)cc1)c1ccccc1F` (centres unmarked) [Compound 76, 3-(2-fluorophenyl)-3-(4-fluorophenyl)-1-propylamine], for which the IC50 amounted to 0.73 µM.

Consider `NCCC(c1ccc(F)cc1)c1ccc(F)cc1` [Compound 77, 3,3-bis(4-fluorophenyl)-1-propylamine], for which the IC50 stood at 5.5 µM. For `COc1cccc(C(=CCN)c2cccc(OC)c2)c1` [Compound 116, 3,3-bis(3-methoxyphenyl)-prop-2-ene-1-amine], the IC50 is 3.6 µM and 4.47 µM. In the case of `NCCc1ccccc1Cc1ccccc1F` [Compound 129], the IC50 was found to be 1.26 µM. `NCCc1ccccc1Cc1cccc(F)c1` [Compound 130]: the IC50 was found to be 0.851 µM. As for `NCCc1ccccc1Cc1ccc(F)cc1` [Compound 131], the 50% inhibitory concentration (IC50) came out at 1.23 µM.

As to `COc1cccc(/C(=C\CN)c2cccc(Cl)c2)c1` [Compound 143], the IC50 worked out at 2.82 µM. Turning to `CN(C)CCC(Oc1ccc2c(c1)CCCC2)c1ccc(C#N)cc1` (centres unmarked) [Novo-Nordisk compound^d, reference compound], the IC50 came out at 28.8 µM. On to `CN(C)CCC(c1ccc(Br)cc1)c1ccccn1` (centres unmarked) [brompheniramine, reference compound], for which the IC50 is 138 µM. With `CN1CCN(C(c2ccccc2)c2ccc(Cl)cc2)CC1` (centres unmarked) [chlorcyclizine, reference compound], the IC50 is around 10 µM. Consider `CN(C)CCN(Cc1ccc(Cl)cc1)c1ccccn1` [chloropyramine, reference compound], for which the IC50 was determined as 76 µM. Same read-out and setting: then `CN(C)CCC(c1ccc(Cl)cc1)c1ccccn1` (centres unmarked) [chlorpheniramine, reference compound], with above 100 µM; and `CN1CCN(C(c2ccccc2)c2ccccc2)CC1` [cyclizine, reference compound], with 28 µM; and `CC(C)N(CCC(C(N)=O)(c1ccccc1)c1ccccn1)C(C)C` (centres unmarked) [disopyramide, reference compound], with above 100 µM.

With `CN(C)CCOC(C)(c1ccccc1)c1ccccn1` (centres unmarked) [doxylamine, reference compound], the IC50 was determined as 62 µM.

For `CC(C)[N+](C)(CCC(C(N)=O)(c1ccccc1)c1ccccc1)C(C)C` [isopropamide, reference compound], the IC50 stood at 87 µM. As to `Cc1cccc(C)c1NC(=O)CN1CCN(CCCC(c2ccc(F)cc2)c2ccc(F)cc2)CC1` [lidoflazine, reference compound], the IC50 is above 30 µM. Regarding `CN(C)CCC(c1ccccc1)c1ccccn1` (centres unmarked) [pheniramine, reference compound], the IC50 was found to be 22 µM. Regarding `O=c1[nH]c2ccccc2n1C1CCN(CCCC(c2ccc(F)cc2)c2ccc(F)cc2)CC1` [pimozide, reference compound], the IC50 is above 10 µM. Still for that read-out and setting: then `OC(CCN1CCCCC1)(c1ccccc1)c1ccccc1` [pridinol, reference compound], with 10.7 µM; and `OC(CCN1CCCCC1)(c1ccccc1)C1CCCCC1` (centres unmarked) [trihexyphenidyl, reference compound], with 5.13 µM; and `CN(C)C/C=C(/c1ccc(Br)cc1)c1cccnc1` [zimeldine, reference compound], with at least 26 µM.

Still in this assay, the particulars now being: read-out: IC50 (μM) vs. NMDA; NMDA/glycine-induced increases in intracellular calcium, cultured rat cerebellar granule cells.
For the compound `NCCC(c1cccc(C(F)(F)F)c1)c1cccc(C(F)(F)F)c1` [Compound 78, 3,3-bis[3-(trifluoromethyl)phenyl]-1-propylamine], the IC50 is 10.2 µM.

A further assay concerns NMDA receptor-ionophore complex (site labeled by [3H]MK-801). Kind of assay: Inhibition of [3H]MK-801 binding in rat cortical/hippocampal washed membrane preparations. As to conditions: @ 1 μM.
Take `NCCC1c2cccc(F)c2CCc2c(F)cccc21` [Compound 193]: the “activity vs. [3H]MK-801 binding” value was “inactive @ 1 μM”.

Still in this assay, the particulars now being: read-out: IC50 (μM) vs. [3H]MK-801; rat cortical/hippocampal washed membranes.
Consider `CNCCC(c1cccc(F)c1)c1ccc(OC)c(F)c1` (racemic) [Compound 174, (R,S)-N-Methyl-3-(3-fluoro-4-methoxy)-3-(3-fluorophenyl)propyl amine maleate], for which the IC50 is 57 µM. For `NCC[C@H](c1cccc(F)c1)c1ccc(O)c(F)c1` (racemic) [Compound 175, (R,S)-3-(3-Fluoro-4-hydroxy)-3-(3-fluorophenyl)propylamine maleate], the IC50 amounted to 5.1 µM. On to `CNCCC(c1cccc(F)c1)c1ccc(O)c(F)c1` (racemic) [Compound 176, (R,S)-N-Methyl-3-(3-fluoro-4-hydroxy)-3-(3-fluorophenyl)propyl amine hydrochloride], for which the IC50 was 10 µM. With `CN(C)CCC=C1c2ccccc2CCc2ccccc21` [Amitriptyline, reference compound], the half-inhibitory concentration (IC50) was 14.2 µM.

Turning to `CN(C)CCCN1c2ccccc2Sc2ccc(Cl)cc21` [Chlorpromazine, reference compound], the IC50 came to 11.2 µM. As for `Cc1ccccc1OC(CCN)c1ccccc1` (centres unmarked) [Compound 177], the IC50 worked out at 0.754 µM.

For `COc1ccccc1OC(CCN)c1ccccc1` (centres unmarked) [Compound 178], the IC50 came out at 1.25 µM. As to `NCCC1c2cc(F)ccc2CCc2c(F)cccc21` (centres unmarked) [Compound 194], the IC50 worked out at 0.371 µM. As for `NCCC1c2cc(F)ccc2CCc2ccc(F)cc21` [Compound 195, 3,7-Difluoro-10,11-dihydro-5-(2-aminoethyl)-5H-dibenzo[a,d]cycloheptene hydrochloride], the IC50 was determined as 0.029 µM.

As for `NCCC1c2ccccc2CCc2c(F)cccc21` (centres unmarked) [Compound 196], the IC50 is 2.24 µM. Consider `NCCC1c2ccccc2CCc2ccc(F)cc21` (centres unmarked) [Compound 197, 3-Fluoro-10,11-dihydro-5-(2-aminoethyl)-5H-dibenzo[a,d]cycloheptene hydrochloride], for which the IC50 is 0.053 µM. With `CN(C)CCC=C1c2ccccc2C=Cc2ccccc21` [Cyclobenzaprine, reference compound], the IC50 is 14.5 µM. For the compound `CN(C)CCCN1c2ccccc2CCc2ccccc21` [Imipramine, reference compound], the concentration for half-maximal inhibition (IC50) was found to be 6.75 µM. As for `CNCCCN1c2ccccc2CCc2ccccc21` [desipramine, reference compound], the IC50 came to 3.26 µM.
